Experimental data: BigSolDB 2.1

`Cc1cccc(N(C)C(=S)Oc2ccc3ccccc3c2)c1` showed a solubility (mole fraction) (in acetic acid, 283.15 K) of 0.00186, a solubility (mole fraction) (in acetic acid, 288.15 K) of 0.00249 and a solubility (mole fraction) (in acetic acid, 293.15 K) of 0.00307. For the same molecule, the solubility (mole fraction) (in acetic acid, 298.15 K) was 0.00359, the solubility (mole fraction) (in acetic acid, 303.15 K) was 0.0045 and the solubility (mole fraction) (in acetic acid, 308.15 K) was 0.00574. The solubility (mole fraction) (in acetic acid, 313.15 K) was 0.00779, the solubility (mole fraction) (in acetic acid, 318.15 K) was 0.00993 and the solubility (mole fraction) (in acetic acid, 323.15 K) was 0.0127. It also gave a solubility (mole fraction) (in acetic acid, 328.15 K) of 0.0156, a solubility (mole fraction) (in ethanol, 283.15 K) of 0.000558 and a solubility (mole fraction) (in ethanol, 288.15 K) of 0.000765. The solubility (mole fraction) (in ethanol, 293.15 K) was 0.000957, the solubility (mole fraction) (in ethanol, 298.15 K) was 0.00125 and the solubility (mole fraction) (in ethanol, 303.15 K) was 0.00161. The solubility (mole fraction) (in ethanol, 308.15 K) was 0.00196, the solubility (mole fraction) (in ethanol, 313.15 K) was 0.00241 and the solubility (mole fraction) (in ethanol, 318.15 K) was 0.00287. For the same molecule, the solubility (mole fraction) (in ethanol, 323.15 K) was 0.00365, the solubility (mole fraction) (in ethanol, 328.15 K) was 0.00448 and the solubility (mole fraction) (in ethylene glycol, 283.15 K) was 5.01e-05. It also gave a solubility (mole fraction) (in ethylene glycol, 288.15 K) of 5.88e-05, a solubility (mole fraction) (in ethylene glycol, 293.15 K) of 7.5e-05 and a solubility (mole fraction) (in ethylene glycol, 298.15 K) of 8.76e-05. For the same molecule, the solubility (mole fraction) (in ethylene glycol, 303.15 K) was 0.000107, the solubility (mole fraction) (in ethylene glycol, 308.15 K) was 0.000129 and the solubility (mole fraction) (in ethylene glycol, 313.15 K) was 0.000156. For the same molecule, the solubility (mole fraction) (in ethylene glycol, 318.15 K) was 0.000201, the solubility (mole fraction) (in ethylene glycol, 323.15 K) was 0.000258 and the solubility (mole fraction) (in ethylene glycol, 328.15 K) was 0.00031. For the same molecule, the solubility (mole fraction) (in isobutanol, 283.15 K) was 0.000544, the solubility (mole fraction) (in isobutanol, 288.15 K) was 0.000734 and the solubility (mole fraction) (in isobutanol, 293.15 K) was 0.000933. It also gave a solubility (mole fraction) (in isobutanol, 298.15 K) of 0.00137, a solubility (mole fraction) (in isobutanol, 303.15 K) of 0.00174 and a solubility (mole fraction) (in isobutanol, 308.15 K) of 0.0025. It also gave a solubility (mole fraction) (in isobutanol, 313.15 K) of 0.00316, a solubility (mole fraction) (in isobutanol, 318.15 K) of 0.00409 and a solubility (mole fraction) (in isobutanol, 323.15 K) of 0.00544. It also gave a solubility (mole fraction) (in isobutanol, 328.15 K) of 0.00705, a solubility (mole fraction) (in isopropanol, 283.15 K) of 0.000365 and a solubility (mole fraction) (in isopropanol, 288.15 K) of 0.00054. It also gave a solubility (mole fraction) (in isopropanol, 293.15 K) of 0.000731, a solubility (mole fraction) (in isopropanol, 298.15 K) of 0.000965 and a solubility (mole fraction) (in isopropanol, 303.15 K) of 0.00125. It also gave a solubility (mole fraction) (in isopropanol, 308.15 K) of 0.00168, a solubility (mole fraction) (in isopropanol, 313.15 K) of 0.00225 and a solubility (mole fraction) (in isopropanol, 318.15 K) of 0.00273. The solubility (mole fraction) (in isopropanol, 323.15 K) was 0.00357, the solubility (mole fraction) (in isopropanol, 328.15 K) was 0.00437 and the solubility (mole fraction) (in methanol, 283.15 K) was 0.000402. For the same molecule, the solubility (mole fraction) (in methanol, 288.15 K) was 0.0005, the solubility (mole fraction) (in methanol, 293.15 K) was 0.000691 and the solubility (mole fraction) (in methanol, 298.15 K) was 0.000843. For the same molecule, the solubility (mole fraction) (in methanol, 303.15 K) was 0.00102, the solubility (mole fraction) (in methanol, 308.15 K) was 0.00119 and the solubility (mole fraction) (in methanol, 313.15 K) was 0.00149. It also gave a solubility (mole fraction) (in methanol, 318.15 K) of 0.00181, a solubility (mole fraction) (in methanol, 323.15 K) of 0.00224 and a solubility (mole fraction) (in methanol, 328.15 K) of 0.00267. It also gave a solubility (mole fraction) (in n-butanol, 283.15 K) of 0.00082, a solubility (mole fraction) (in n-butanol, 288.15 K) of 0.00115 and a solubility (mole fraction) (in n-butanol, 293.15 K) of 0.00154. The solubility (mole fraction) (in n-butanol, 298.15 K) was 0.00207, the solubility (mole fraction) (in n-butanol, 303.15 K) was 0.00264 and the solubility (mole fraction) (in n-butanol, 308.15 K) was 0.00345. For the same molecule, the solubility (mole fraction) (in n-butanol, 313.15 K) was 0.00448, the solubility (mole fraction) (in n-butanol, 318.15 K) was 0.00568 and the solubility (mole fraction) (in n-butanol, 323.15 K) was 0.0076. The solubility (mole fraction) (in n-butanol, 328.15 K) was 0.0097, the solubility (mole fraction) (in n-octanol, 283.15 K) was 0.00145 and the solubility (mole fraction) (in n-octanol, 288.15 K) was 0.00189. It also gave a solubility (mole fraction) (in n-octanol, 293.15 K) of 0.00251, a solubility (mole fraction) (in n-octanol, 298.15 K) of 0.00311 and a solubility (mole fraction) (in n-octanol, 303.15 K) of 0.004. For the same molecule, the solubility (mole fraction) (in n-octanol, 308.15 K) was 0.00526, the solubility (mole fraction) (in n-octanol, 313.15 K) was 0.00708 and the solubility (mole fraction) (in n-octanol, 318.15 K) was 0.00896. It also gave a solubility (mole fraction) (in n-octanol, 323.15 K) of 0.0115, a solubility (mole fraction) (in n-octanol, 328.15 K) of 0.0148 and a solubility (mole fraction) (in n-propanol, 283.15 K) of 0.000679. The solubility (mole fraction) (in n-propanol, 288.15 K) was 0.00104, the solubility (mole fraction) (in n-propanol, 293.15 K) was 0.00136 and the solubility (mole fraction) (in n-propanol, 298.15 K) was 0.00171. It also gave a solubility (mole fraction) (in n-propanol, 303.15 K) of 0.00218, a solubility (mole fraction) (in n-propanol, 308.15 K) of 0.00286 and a solubility (mole fraction) (in n-propanol, 313.15 K) of 0.00351. It also gave a solubility (mole fraction) (in n-propanol, 318.15 K) of 0.00451, a solubility (mole fraction) (in n-propanol, 323.15 K) of 0.00606 and a solubility (mole fraction) (in n-propanol, 328.15 K) of 0.00772. The solubility (mole fraction) (in propylene glycol, 283.15 K) was 0.000155, the solubility (mole fraction) (in propylene glycol, 288.15 K) was 0.000214 and the solubility (mole fraction) (in propylene glycol, 293.15 K) was 0.000264. The solubility (mole fraction) (in propylene glycol, 298.15 K) was 0.000335, the solubility (mole fraction) (in propylene glycol, 303.15 K) was 0.000413 and the solubility (mole fraction) (in propylene glycol, 308.15 K) was 0.000542. For the same molecule, the solubility (mole fraction) (in propylene glycol, 313.15 K) was 0.00068, the solubility (mole fraction) (in propylene glycol, 318.15 K) was 0.000785 and the solubility (mole fraction) (in propylene glycol, 323.15 K) was 0.000953. For the same molecule, the solubility (mole fraction) (in propylene glycol, 328.15 K) was 0.00125.
